Reference: paper PMC11052316, “New Transferrin Receptor-Targeted Peptide–Doxorubicin Conjugates: Synthesis and In Vitro Antitumor Activity” (Molecules, 2024)
Where two headings read alike, the source gives them in different places. Square brackets hold non-standard residues; d marks the D form. Peptide text beside a SMILES is read from it. * marks the point of attachment. X1 = COc1cccc2c1C(=O)c1c(O)c3c(c(O)c1C2=O)C[C@@](O)(C(=O)CO)C[C@@H]3O[C@H]1C[C@H](NC(=O)CCS*)[C@H](O)[C@H](C)O1

Tests used:
[1] = Reduction-triggered degradation / drug release by GSH; assay type: physicochemical; details: 37 °C; for remaining at 1 h, 100 µM: read-out: conjugate remained undegraded; for t1/2 of degradation in 5 mM GSH: intact conjugate by HPLC, mean ± SD
Description: A stock solution of ^LT7-SS-DOX or ^DT7-SS-DOX was diluted by adding 5 mM or 5 μM GSH dissolved in acetonitrile-PBS (3:7, v/v) to a final volume of 800 μL with 100 μM conjugate, and the mixture was incubated at 37 °C. Aliquots (100 μL) were taken from the incubation solution at scheduled time intervals and diluted with acetonitrile–PBS (3:7, v/v, 200 μL). After filtration, the intact conjugate that remained in the sample was analyzed by HPLC.

A549 cells [2] = test: In vitro cytotoxicity, CCK-8 assay; assay type: cell-based, human; details: for cell viability: 48 h, CCK-8
Description: (§1) Human HepG2 hepatocellular carcinoma cells and human U87 glioblastoma cells were purchased from Procell Life Science & Technology Co., Ltd. (Wuhan, China), human A549 lung carcinoma cells were obtained from the School of Basic Medical Sciences, Chengde Medical University, human LO2 normal hepatic cells were purchased from Jennio Biotech Co., Ltd. (Guangzhou, China). The cells were cultured in DMEM (HepG2), MEM containing 1% non-essential amino acids (U87), and RPMI-1640 (A549 and LO2), supplemented with 10% fetal bovine serum (FBS) and 1% penicillin/streptomycin at 37 °C in a humidified atmosphere with 5% CO2.
(§2) A549, HepG2, U87, and LO2 cells were each seeded in 96-well cell culture plates at a density of 6 × 10^3 cells per well and incubated at 37 °C for 24 h. Then, cells were treated with serial concentrations of free DOX or the peptide–DOX conjugates for 48 h. After incubation, CCK-8 (10 μL) was added to each well and incubated for an additional 2 h. The absorbance of each well was measured at 450 nm with a reference wavelength of 630 nm by using a Multiskan GO microplate reader (Thermo Fisher Scientific, Waltham, MA, USA). Data for each cell line treated with free DOX or PDCs were obtained from three independent experiments.

U87 cells [3] = test: In vitro cytotoxicity, CCK-8 assay; assay type: cell-based, human; details: for cell viability: 48 h, CCK-8; for IC50: U87, 48 h, CCK-8, mean ± SD (n = 3)
Description: as §1, §2

HepG2 cells [4] = test: In vitro cytotoxicity, CCK-8 assay; assay type: cell-based, human; details: for cell viability: 48 h, CCK-8
Description: as §1, §2

[5] = In vitro stability of conjugates in mouse serum; assay type: in vitro ADME; details: 37 °C; for half-life at 100 µM: mouse serum (200 µL in 800 µL, diluted with water), 80 μL of 1 mM conjugate stock + 520 μL ultra-pure water + 200 μL mouse serum, methanol quench, centrifugation, intact PDC by HPLC (C18, 254 nm), mean ± SD, read-out: t1/2 of degradation in mouse serum (converted)
Description: The in vitro stability experiment of the conjugates was conducted by co-incubation with mouse serum, as previously described, with minor modifications. An 80 μL of ^LT7-SS-DOX or ^DT7-SS-DOX stock solution (1 mM) was diluted by adding ultra-pure water (520 μL) and mouse serum (200 μL). The mixture was incubated at 37 °C, aliquots (100 μL) were taken at scheduled time intervals, and then methanol (300 μL) was added to terminate the incubation. After centrifugation at 10,000 rpm for 10 min, the intact PDC that remained in the supernatant was analyzed by HPLC.

LO2 cells [6] = test: In vitro cytotoxicity, CCK-8 assay; assay type: cell-based, human; details: LO2, 48 h, CCK-8, mean ± SD (n = 3)
Description: as §1, §2

A549 cells [7] = test: Confocal microscopy analysis of cellular uptake; assay type: cell-based, human
Description: (§3) A549, HepG2, U87, or LO2 cells were seeded on glass coverslips (5 × 10^4 cells/well) in 24-well cell culture plates and incubated at 37 °C for 24 h. Then, cells were treated with the peptide–DOX conjugates (equivalent DOX concentration of 10 μM) for 4 and 12 h, respectively. Cells treated with free DOX (10 μM) for 4 h were used as the positive control. After the drugs in each well were discarded, cells were washed three times with PBS and fixed with 4% paraformaldehyde for 12 h. Cell nuclei were stained with DAPI for 8 min. The fluorescent images of cells were observed by using a confocal laser scanning microscope (Olympas FV3000).
(§4) After removal of the peptide solution, cells were washed three times with PBS and incubated with the ^DT7-SS-DOX conjugate (equivalent DOX concentration of 10 μM) for 4 h. Cell fixation, staining, and cellular uptake analysis by confocal microscopy were conducted as aforementioned methods.

U87 cells [8] = test: Confocal microscopy analysis of cellular uptake; assay type: cell-based, human
Description: as §3, §4

HepG2 cells [9] = test: Confocal microscopy analysis of cellular uptake; assay type: cell-based, human
Description: as §3, §4

LO2 cells [10] = test: Confocal microscopy analysis of cellular uptake; assay type: cell-based, human; details: LO2, 10 μM, 4 h, confocal laser scanning microscopy
Description: as §3

[11] = 5 mM GSH in acetonitrile-PBS (3:7, v/v), 100 μM conjugate, 1 h, HPLC, n = 3
[12] = 5 mM GSH in acetonitrile-PBS (3:7, v/v), 100 μM conjugate, n = 3

## CC[C@H](C)[C@H](NC(=O)[C@H](C)NC(=O)[C@H](Cc1c[nH]cn1)NC(=O)[C@@H](N)CSSCCC(=O)N[C@H]1C[C@H](O[C@H]2C[C@](O)(C(=O)CO)Cc3c(O)c4c(c(O)c32)C(=O)c2c(OC)cccc2C4=O)O[C@@H](C)[C@H]1O)C(=O)N[C@@H](Cc1ccc(O)cc1)C(=O)N1CCC[C@H]1C(=O)N[C@@H](CCCNC(=N)N)C(=O)N[C@@H](Cc1c[nH]cn1)C(=O)O [^LT7-SS-DOX]
[1]; 5 μM GSH in acetonitrile-PBS (3:7, v/v), 100 μM conjugate, 1 h, HPLC, n = 3
  remaining at 1 h, 100 µM: 93.7%
[1]; [11]
  conjugate remained undegraded: completely degraded
[1]; [12]
  t1/2 of degradation in 5 mM GSH: 0.26 ± 0.01 h
A549 cells [2]; A549, equal DOX concentration of 20 µM
  cell viability: 83.2%
A549 cells [2]; A549, equal DOX concentration of 40 µM
  cell viability: 67.2%
U87 cells [3]; U87, equal DOX concentration of 20 µM
  cell viability: 95.1%
U87 cells [3]; U87, equal DOX concentration of 40 µM
  cell viability: 41.0%
HepG2 cells [4]; HepG2, equal DOX concentration of 20 µM
  cell viability: 73.1%
HepG2 cells [4]; HepG2, equal DOX concentration of 40 µM
  cell viability: 61.5%
[5]; 80 μL of 1 mM stock + 520 μL water + 200 μL mouse serum, 1 h, HPLC
  intact conjugate in mouse serum at 1 h: almost entirely degraded
[5]
  half-life at 100 µM: 0.37 ± 0.02 h

## CC[C@@H](C)[C@@H](NC(=O)[C@@H](Cc1ccc(O)cc1)NC(=O)[C@H]1CCCN1C(=O)[C@@H](CCCNC(=N)N)NC(=O)[C@H](N)Cc1c[nH]cn1)C(=O)N[C@H](C)C(=O)N[C@H](Cc1c[nH]cn1)C(=O)N[C@H](CSSCCC(=O)N[C@H]1C[C@H](O[C@H]2C[C@](O)(C(=O)CO)Cc3c(O)c4c(c(O)c32)C(=O)c2c(OC)cccc2C4=O)O[C@@H](C)[C@H]1O)C(=O)O [^DT7-SS-DOX] (H-[dH][dR][dP][dY][dI][dA][dH][dC](X1)-OH)
[1]; [11]
  remaining at 1 h, 100 µM: 72.1%
[1]; [12]
  t1/2 of degradation in 5 mM GSH: 1.93 ± 0.13 h
[1]; 5 mM GSH
  t1/2 in 5 mM GSH, times longer than that of ^LT7-SS-DOX: ~8 times
A549 cells [2]; A549, 48 h, CCK-8, mean ± SD (n = 3)
  IC50: 20.6 ± 4.81 µM
U87 cells [3]
  IC50: 5.7 ± 0.22 µM
HepG2 cells [4]; HepG2, 48 h, CCK-8, mean ± SD (n = 3)
  IC50: 7.01 ± 1.64 µM
LO2 cells [6]
  IC50: > 100 µM
A549 cells [7]; A549, pre-treated with TfR affinity peptide 100 μM 8 h, then conjugate at equivalent DOX 10 μM for 4 h
  fluorescence intensity after pre-treatment with TfR affinity peptide versus without (TfR competitive inhibition assay): lower
U87 cells [8]; U87, pre-treated with TfR affinity peptide 100 μM 8 h, then conjugate at equivalent DOX 10 μM for 4 h
  fluorescence intensity after pre-treatment with TfR affinity peptide versus without (TfR competitive inhibition assay): lower
HepG2 cells [9]; HepG2, pre-treated with TfR affinity peptide 100 μM 8 h, then conjugate at equivalent DOX 10 μM for 4 h
  fluorescence intensity after pre-treatment with TfR affinity peptide versus without (TfR competitive inhibition assay): lower
[5]
  half-life at 100 µM: 8.58 ± 0.85 h

## COc1cccc2c1C(=O)c1c(O)c3c(c(O)c1C2=O)C[C@@](O)(C(=O)CO)C[C@@H]3O[C@H]1C[C@H](N)[C@H](O)[C@H](C)O1 [DOX, Doxorubicin]
LO2 cells [10]
  location of red (DOX) fluorescence in cells: located in the cell nuclei
U87 cells [3]
  IC50: 1.65 ± 0.2 µM
LO2 cells [6]
  IC50: 1.29 ± 0.18 µM
A549 cells [7]; A549, 10 μM, 4 h, confocal laser scanning microscopy
  location of red (DOX) fluorescence in cells: located in the cell nuclei
U87 cells [8]; U87, 10 μM, 4 h, confocal laser scanning microscopy
  location of red (DOX) fluorescence in cells: located in the cell nuclei
HepG2 cells [9]; HepG2, 10 μM, 4 h, confocal laser scanning microscopy
  location of red (DOX) fluorescence in cells: located in the cell nuclei
